For data set [1], the system named is STZ-induced diabetic retinopathy. Kind of data set: Active oxygen in retina of STZ-induced diabetic retinopathy model. Particulars: mice; 0.2 μg into one eye, three times; vs non-treated DR sample. In kind it is in vivo. As to the method:
Streptozotocin (STZ) was administered at dose of 50 mg/kg to mice daily for 5 days, and a mouse model having induced diabetic retinopathy was obtained. The experimental group of the mouse model was injected with compound 1.1 (SEQ ID NO: 2), in an amount of 0.2 μg into one eye of the mouse, from the 20th day to 24th days from the administration, three times with two days of interval. After 50 days of administration, a DR sample that was not treated with compound 1.1 (SEQ ID NO: 2) and a DR sample treated with compound 1.1 (SEQ ID NO: 2) were collected.
The collected retina tissues from each mouse group as described above were stained with 5 μM of dihydroethidium and active oxygen rates from each group were measured (FIG. 27B). […] Accordingly, compound 1.1 (SEQ ID NO: 2) of the present invention is effectively used for preventing, alleviating or treating ophthalmic indications such as diabetic retinopathy from the biological experiments using mice.

The test system of data set [2] is ARPE-19 cells (Nox-4, VEGF, VEGFR1, VEGFR2, Ang1, Ang2, Tie-2, EPO, EPOR). Kind of data set: Western blot of angiogenesis related factors in high-glucose ARPE-19 cells. In kind it is cell-based, human. Particulars: 30 mM glucose 48 hours, 10 nM and 50 nM. As for the experimental part:
ARPE-19 cells were treated with 5.5 mM of glucose as reference control. For experiment group, the ARPE-19 cells were treated with 30 mM of glucose for 48 hours to induce high blood glucose condition, and simultaneously treated with DMSO, compound 1.1 (SEQ ID NO: 2) (10 nM), and compound 1.1 (SEQ ID NO: 2) (50 nM). Changes in expression of Nox-4, VEGF, VEGFR1, VEGFR2, Ang1, Ang2, Tie-2, EPO, and EPOR proteins were measured by Western blot analysis.
For orientation: A western blot detects proteins with antibodies after separation by electrophoresis.

In a further data set the test system is interleukin-6. Kind of data set: Suppression of LPS-induced IL-6 expression in RAW 264.7 macrophage cells (RT-PCR, Real-Time PCR). The format is cell-based. As to the method:
First, RAW 264.7 macrophage cells were purchased from American Type Culture Collection (ATCC; Manassas, Va.), and were culture at a temperature of 37° C., under 5% CO2 atmosphere, using 10% Fetal Bovine Serum (FBS) and Dulbecco's Modified Eagle's Medium (DMEM) containing 1% penicillin/streptomycin.
The cultured RAW 264.7 macrophage cells were divided into a 6-well cell culture plate. After 24 hours, the cells were pretreated with compound 1.1 (SEQ ID NO: 2), compound 1.2, and smaducin-6, respectively, in a concentration of 100 nM for 30 min, and further treated with lipopolysaccharides (LPS) for two hours. These cells were collected using TRIzol® and the RNA was extracted. From 2 μg of the extracted RNA, cDNAs (complementary deoxyribonucleic acids) were synthesized and reverse transcription polymerase chain reactions (RT-PCR) and real-time polymerase chain reactions (Real-Time PCR) were performed. Samples from the RT-PCR were confirmed by electrophoresis on agarose gels and quantified using densitometer. A glyceraldehyde 3-phosphate dehydrogenase (GAPDH) gene was used as a loading control for the interleukin-6 gene.
RAW 264.7 macrophage cells were treated with varying concentrations of compound 1.1 (SEQ ID NO: 2) from 50 pM to 500 nM for 30 minutes, and treated with 100 ng/mL of LPS for two hours.
(In general: In qPCR the cycle at which signal appears reflects the starting amount.)

The next data set relates to NF-κB. The data set is described as follows: 5×NF-κB-Luc reporter luciferase assay in LPS-treated RAW 264.7 cells. In kind it is cell-based. Particulars: 100 nM for 30 minutes, LPS 100 ng/ml two hours. As to the method: Specifically, 5×NF-κB-Luc reporter plasmid was transfected into RAW 264.7 cells using Effectene (Qiagen, USA). The transfected cells were pretreated with 100 nM of compound 1.1 (SEQ ID NO: 2) for 30 minutes, and further treated with LPS (100 ng/ml) for two hours, and luciferase activity in the cells was measured (FIG. 4 depicts a graph showing relative inhibition activities of compound 1.1 (SEQ ID NO: 2) and compound 1.2 to NF-κB activation). When the cells were treated with compound 1.1 (SEQ ID NO: 2) and compound 1.2 according to the present invention, activation of NF-κB, which was induced by LPS, was inhibited (FIG. 4).
In addition, 5×NF-κB-Luc reporter plasmid was transfected into RAW 264.7 macrophage cells and treated with compounds of the present invention, as described above. After 24 hours of the transfection, the cells were pretreated with DMSO (control), compound 1.1 (SEQ ID NO: 2), reference compound 1 (SEQ ID NO: 16) (compound where palmitic acid is removed from compound 1.1 (SEQ ID NO: 2)), and smaducin-6 were treated at various concentrations of 100 pM, 1 nM, and 100 nM for 30 minutes, and then the cells were treated with 100 ng/ml of LPS for two hours.
(§1) Specifically, 5×NF-κB-Luc reporter plasmid, SBE-Luc reporter plasmid, and BRE-Luc reporter plasmid were individually transfected into Raw 264.7 macrophage cells. After 24 hours, the cells transfected with the NF-κB-Luc reporter plasmid were treated with 100 ng/mL of LPS, the cells transfected with the SBE-Luc reporter plasmid were treated with 5 ng/mL of TFG-β1, and the cells transfected with the BRE-Luc reporter plasmid were treated with 100 ng/mL of BMP6 for two hours.
As described in Example 2.3, 5×NF-κB-Luc reporter plasmid was transfected into RAW 246.7 macrophage cells. After 24 hours, the cells transfected with NF-κB-Luc reporter plasmid were pretreated with compound 1.1 (SEQ ID NO: 2) (100 nM), interleukin-1-receptor-associated-kinase-1/4 inhibitor (IRAK1/4) inhibitor (25 μM, CAS 509093-47-4), and smaducin-6 (100 nM) for 30 minutes, and then further treated with LPS (100 ng/ml) for 2 hours. Subsequently, luciferase activities in the cells were measured.

The test system of another data set is BRE (BMP6 signaling). The data set is described as follows: BRE-Luc reporter assay in Raw 264.7 cells treated with BMP6. In kind it is cell-based. Particulars: 100 ng/mL BMP6 two hours. As for the experimental part:
as §1
(A reporter such as luciferase makes a cellular process visible.)

The nature of data set [3]: Tissue distribution after oral administration. Particulars: rat, oral 10 mg/kg. The format is in vivo. As for the experimental part:
Compound 1.1 (SEQ ID NO: 2) was orally administered to a rat at dose of 10 mg/kg, and after 2 hours and 8 hours, concentrations of compound 1.1 (SEQ ID NO: 2) were measured in the small intestinal tissue, large intestinal tissue, appendix tissue, retrimentum in small intestine and retrimentum in large intestine.

This is an account of results in patent publication US11365215B2, “Method for preventing, improving, or treating inflammatory bowel disease” (Research & Business Foundation Sungkyunkwan University, priority 2015, dated 2022).

Each structure is given as a SMILES string. Like-named read-outs stand apart in the source and are kept apart here. Peptide text beside a SMILES is read from it.

For the compound `CCCCCCCCCCCCCCCC(=O)N1CCC[C@H]1C(=O)N1CCC[C@H]1C(=O)NCC(=O)N[C@@H](Cc1ccc(O)cc1)C(=O)O` [compound 1.1, (S)-3-(4-hydroxyphenyl)-2-(2-((S)-1-((S)-1-palmitoylpyrrolidine-2-carbonyl)pyrrolidine-2-carboxamido)acetamido)propanoic acid] (HELM PEPTIDE1{[CCCCCCCCCCCCCCCC(=O)[*:2]].P.P.G.Y}$$$$V2.0), the “active oxygen rate in retina tissues (dihydroethidium)” value in data set [1] was “reduced active oxygen rate”. Besides, the “expression of Ang1 and Tie-2” value in data set [2] was “increased according to increased concentration”. Moreover, the “expression of Nox4, VEGF, VEGFR1,2, Ang2, EPO and EPOR” value in data set [2] was “reduced”. The IC50 with interleukin-6 (Mus musculus, RAW264.7, 50 pM to 500 nM for 30 minutes, 100 ng/mL LPS two hours, read-out: concentration where the expression of interleukin-6 was suppressed to 50% or below (IC50)) is around 1.6 nM. In addition, the “expression of interleukin-6 induced by LPS treatment” value with interleukin-6 (pretreated 100 nM for 30 min, LPS two hours, compared to untreated sample) is recorded as “suppressed”. In addition, in the data set on NF-κB (100 pM, 1 nM), the “inhibition of the activity of NF-κB induced by LPS, dose dependence” value is recorded as “increased as dose of compound 1.1 (SEQ ID NO: 2) increased”. The “activation of NF-κB induced by LPS (luciferase activity)” value in the data set on NF-κB is “inhibited”. Besides, in the data set on BRE (BMP6 signaling), the “activation of BRE induced by BMP6 treatment” value was “not inhibited”. Moreover, the concentration at 2 h in data set [3] (appendix tissue, 2 hours, read-out: Concentration in appendix tissue) worked out at 22.7 ± 2.56 ng/mL; in data set [3] (large intestinal tissue, 2 hours, read-out: Concentration in large intestinal tissue), 30 ± 10 ng/mL; in data set [3] (retrimentum in small intestine, 2 hours, read-out: Concentration in retrimentum in small intestine), 1120 ± 217 ng/mL. Moreover, the concentration at 8 h in data set [3] (appendix tissue, read-out: Concentration in appendix tissue) amounted to 48.2 ± 46 ng/mL; in data set [3] (large intestinal tissue, read-out: Concentration in large intestinal tissue), 33.2 ± 28.8 ng/mL; in data set [3] (retrimentum in large intestine, read-out: Concentration in retrimentum in large intestine), 1280 ± 52.7 ng/mL; in data set [3] (retrimentum in small intestine, read-out: Concentration in retrimentum in small intestine), 876 ± 900 ng/mL; in data set [3] (small intestinal tissue, read-out: Concentration in small intestinal tissue), 78.1 ± 59.9 ng/mL. Moreover, in data set [3] (2 hours), the “Concentration in small intestinal tissue” value was determined as 75 ± 70.2 ng/mL.
